Measured values published in ChEMBL document CHEMBL3885881, “DrugMatrix”.

Species on record: Rattus norvegicus
Assay: DrugMatrix - Regimen: Daily Repeat
Format: toxicity, organism-based, Sprague-Dawley
Design: regimen Daily Repeat, gender Male, age 6-8 weeks
Conditions: in vivo, po, route oral GAVAGE, […]; for ABSOLUTE BASOPHIL / ABSOLUTE EOSINOPHIL / ABSOLUTE LYMPHOCYTE / ABSOLUTE MONOCYTE / ABSOLUTE SEGMENTED NEUTROPHIL / BASOPHIL / EOSINOPHIL / ERYTHROCYTE COUNT / HEMATOCRIT / HEMOGLOBIN / LEUKOCYTE COUNT / LYMPHOCYTE / MEAN CORPUSCULAR HEMOGLOBIN / MEAN CORPUSCULAR HEMOGLOBIN CONCENTRATION / MONOCYTE / NEUTROPHIL / NUCLEATED RED BLOOD CELLS / PLATELET COUNT: tissue Blood; for ALANINE AMINOTRANSFERASE / ALBUMIN / ALKALINE PHOSPHATASE / ASPARTATE AMINOTRANSFERASE / BLOOD UREA NITROGEN / CARBON DIOXIDE / CHLORIDE / CHOLESTEROL / CREATINE PHOSPHOKINASE / CREATININE / LACTATE DEHYDROGENASE / LIPASE / PHOSPHORUS / POTASSIUM / SODIUM / TOTAL BILIRUBIN / TOTAL PROTEIN / URIC ACID: tissue Plasma
[1] = 10 mg/kg, 120 h, dose level Low, time 5 day
[2] = 1800 mg/kg, 72 h, dose level High, time 3 day
[3] = 1800 mg/kg, 120 h, dose level High, time 5 day

CN(CCOc1ccc(CC2SC(=O)NC2=O)cc1)c1ccccn1 (stereo not drawn) [ROSIGLITAZONE]
ABSOLUTE BASOPHIL [1]: 0 CELLS/uL | ABSOLUTE EOSINOPHIL [1]: 76.67 CELLS/uL | ABSOLUTE LYMPHOCYTE [1]: 6940.67 CELLS/uL | ABSOLUTE MONOCYTE [1]: 0 CELLS/uL | ABSOLUTE SEGMENTED NEUTROPHIL [1]: 749.33 CELLS/uL | BASOPHIL [1]: 0% | EOSINOPHIL [1]: 1% | ERYTHROCYTE COUNT [1]: 4.86 x10E6/uL | HEMATOCRIT [1]: 32.47% | HEMOGLOBIN [1]: 12.6 G/DL | LEUKOCYTE COUNT [1]: 7.77 x10E3/uL | LYMPHOCYTE [1]: 89.33% | MEAN CORPUSCULAR HEMOGLOBIN [1]: 25.9 pg | MEAN CORPUSCULAR HEMOGLOBIN CONCENTRATION [1]: 38.83 G/DL | MONOCYTE [1]: 0% | NEUTROPHIL [1]: 9.67% | NUCLEATED RED BLOOD CELLS [1]: 0 /100WBC | PLATELET COUNT [1]: 1021.33 x10E3/uL | ALANINE AMINOTRANSFERASE [1]: 62 u/L | ALBUMIN [1]: 3.97 G/DL | ALKALINE PHOSPHATASE [1]: 357.67 u/L | ASPARTATE AMINOTRANSFERASE [1]: 91 u/L | BLOOD UREA NITROGEN [1]: 16.67 mg/dL | CARBON DIOXIDE [1]: 33.33 mmol/L | CHLORIDE [1]: 101 MEQ/L | CHOLESTEROL [1]: 67.67 mg/dL | CREATINE PHOSPHOKINASE [1]: 238 u/L | CREATININE [1]: 0.13 mg/dL | LACTATE DEHYDROGENASE [1]: 63.33 u/L | LIPASE [1]: 13.67 u/L | PHOSPHORUS [1]: 10.13 mg/dL | POTASSIUM [1]: 4.62 MEQ/L | SODIUM [1]: 146.1 MEQ/L | TOTAL BILIRUBIN [1]: 0.0333 mg/dL | TOTAL PROTEIN [1]: 5.5 G/DL | URIC ACID [1]: 0.27 mg/dL | ABSOLUTE BASOPHIL [2]: 0 CELLS/uL | ABSOLUTE EOSINOPHIL [2]: 26 CELLS/uL | ABSOLUTE LYMPHOCYTE [2]: 10365.67 CELLS/uL | ABSOLUTE MONOCYTE [2]: 125.33 CELLS/uL | ABSOLUTE SEGMENTED NEUTROPHIL [2]: 983 CELLS/uL | BASOPHIL [2]: 0% | EOSINOPHIL [2]: 0.33% | ERYTHROCYTE COUNT [2]: 5.03 x10E6/uL | HEMATOCRIT [2]: 31.87% | HEMOGLOBIN [2]: 12.43 G/DL | LEUKOCYTE COUNT [2]: 11.5 x10E3/uL | LYMPHOCYTE [2]: 90.67% | MEAN CORPUSCULAR HEMOGLOBIN [2]: 24.77 pg | MEAN CORPUSCULAR HEMOGLOBIN CONCENTRATION [2]: 39.03 G/DL | MONOCYTE [2]: 0.67% | NEUTROPHIL [2]: 8.33% | NUCLEATED RED BLOOD CELLS [2]: 0 /100WBC | PLATELET COUNT [2]: 1207.33 x10E3/uL | ALANINE AMINOTRANSFERASE [2]: 77.67 u/L | ALBUMIN [2]: 3.97 G/DL | ALKALINE PHOSPHATASE [2]: 304.33 u/L | ASPARTATE AMINOTRANSFERASE [2]: 99.67 u/L | BLOOD UREA NITROGEN [2]: 14.67 mg/dL | CARBON DIOXIDE [2]: 29.33 mmol/L | CHLORIDE [2]: 103 MEQ/L | CHOLESTEROL [2]: 44.67 mg/dL | CREATINE PHOSPHOKINASE [2]: 406.67 u/L | CREATININE [2]: 0.29 mg/dL | LACTATE DEHYDROGENASE [2]: 107.33 u/L | LIPASE [2]: 23.33 u/L | PHOSPHORUS [2]: 8.37 mg/dL | POTASSIUM [2]: 4.78 MEQ/L | SODIUM [2]: 144.7 MEQ/L | TOTAL BILIRUBIN [2]: 0.17 mg/dL | TOTAL PROTEIN [2]: 5.07 G/DL | URIC ACID [2]: 0.43 mg/dL | ABSOLUTE BASOPHIL [3]: 0 CELLS/uL | ABSOLUTE EOSINOPHIL [3]: 16.67 CELLS/uL | ABSOLUTE LYMPHOCYTE [3]: 4629 CELLS/uL | ABSOLUTE MONOCYTE [3]: 80.67 CELLS/uL | ABSOLUTE SEGMENTED NEUTROPHIL [3]: 707 CELLS/uL | BASOPHIL [3]: 0% | EOSINOPHIL [3]: 0.33% | ERYTHROCYTE COUNT [3]: 5.6 x10E6/uL | HEMATOCRIT [3]: 34.33% | HEMOGLOBIN [3]: 13.27 G/DL | LEUKOCYTE COUNT [3]: 5.43 x10E3/uL | LYMPHOCYTE [3]: 85.33% | MEAN CORPUSCULAR HEMOGLOBIN [3]: 23.8 pg | MEAN CORPUSCULAR HEMOGLOBIN CONCENTRATION [3]: 38.7 G/DL | MONOCYTE [3]: 1.33% | NEUTROPHIL [3]: 13% | NUCLEATED RED BLOOD CELLS [3]: 0 /100WBC | PLATELET COUNT [3]: 1134.33 x10E3/uL | ALANINE AMINOTRANSFERASE [3]: 160.33 u/L | ALBUMIN [3]: 3.97 G/DL | ALKALINE PHOSPHATASE [3]: 307 u/L | ASPARTATE AMINOTRANSFERASE [3]: 119 u/L | BLOOD UREA NITROGEN [3]: 16 mg/dL | CARBON DIOXIDE [3]: 26.67 mmol/L | CHLORIDE [3]: 98.67 MEQ/L | CHOLESTEROL [3]: 66.33 mg/dL | CREATINE PHOSPHOKINASE [3]: 501.67 u/L | CREATININE [3]: 0.25 mg/dL | LACTATE DEHYDROGENASE [3]: 115 u/L | LIPASE [3]: 9.67 u/L | PHOSPHORUS [3]: 7.87 mg/dL | POTASSIUM [3]: 4.33 MEQ/L | SODIUM [3]: 141.6 MEQ/L | TOTAL BILIRUBIN [3]: 0.2 mg/dL | TOTAL PROTEIN [3]: 5.1 G/DL | URIC ACID [3]: 0.3 mg/dL
